Laboratory results published in article PMC6704710, “Preclinical evaluation of 3D185, a novel potent inhibitor of FGFR1/2/3 and CSF-1R, in FGFR-dependent and macrophage-dominant cancer models” (Journal of Experimental & Clinical Cancer Research : CR, 2019).

What was measured:
Test in all cases: Eurofins kinase panel
Assay type in all cases: biochemical
Details in all cases: read-out: Inhibition rate (%)
[1] = biological target: T1, PKCδ(h) (Homo sapiens, UniProt Q05655)
T1 construct: purchased Eurofins (KinaseProfiler)
T1 sequence (Q05655 whole entry): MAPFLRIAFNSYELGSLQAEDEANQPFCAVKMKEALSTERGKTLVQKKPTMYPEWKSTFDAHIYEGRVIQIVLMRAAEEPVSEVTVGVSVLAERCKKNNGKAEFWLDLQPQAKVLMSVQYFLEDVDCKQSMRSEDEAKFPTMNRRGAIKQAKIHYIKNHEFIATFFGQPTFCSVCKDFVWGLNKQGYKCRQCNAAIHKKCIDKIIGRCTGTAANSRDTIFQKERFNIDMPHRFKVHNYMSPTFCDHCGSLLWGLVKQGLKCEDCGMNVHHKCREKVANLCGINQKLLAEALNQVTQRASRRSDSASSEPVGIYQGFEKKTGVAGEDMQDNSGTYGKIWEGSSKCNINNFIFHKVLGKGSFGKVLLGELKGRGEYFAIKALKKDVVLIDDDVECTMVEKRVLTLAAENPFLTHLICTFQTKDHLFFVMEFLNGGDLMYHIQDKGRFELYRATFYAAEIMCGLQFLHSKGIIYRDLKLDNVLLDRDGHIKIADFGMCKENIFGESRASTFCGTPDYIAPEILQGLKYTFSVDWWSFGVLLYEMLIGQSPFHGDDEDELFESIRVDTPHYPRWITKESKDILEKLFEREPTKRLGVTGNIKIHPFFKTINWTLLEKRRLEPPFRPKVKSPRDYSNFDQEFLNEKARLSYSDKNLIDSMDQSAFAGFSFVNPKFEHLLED

[2] = biological target: T2, BMPR2(h) (Homo sapiens, UniProt Q13873)
T2 construct: purchased Eurofins (KinaseProfiler)
T2 sequence (Q13873 27-1038): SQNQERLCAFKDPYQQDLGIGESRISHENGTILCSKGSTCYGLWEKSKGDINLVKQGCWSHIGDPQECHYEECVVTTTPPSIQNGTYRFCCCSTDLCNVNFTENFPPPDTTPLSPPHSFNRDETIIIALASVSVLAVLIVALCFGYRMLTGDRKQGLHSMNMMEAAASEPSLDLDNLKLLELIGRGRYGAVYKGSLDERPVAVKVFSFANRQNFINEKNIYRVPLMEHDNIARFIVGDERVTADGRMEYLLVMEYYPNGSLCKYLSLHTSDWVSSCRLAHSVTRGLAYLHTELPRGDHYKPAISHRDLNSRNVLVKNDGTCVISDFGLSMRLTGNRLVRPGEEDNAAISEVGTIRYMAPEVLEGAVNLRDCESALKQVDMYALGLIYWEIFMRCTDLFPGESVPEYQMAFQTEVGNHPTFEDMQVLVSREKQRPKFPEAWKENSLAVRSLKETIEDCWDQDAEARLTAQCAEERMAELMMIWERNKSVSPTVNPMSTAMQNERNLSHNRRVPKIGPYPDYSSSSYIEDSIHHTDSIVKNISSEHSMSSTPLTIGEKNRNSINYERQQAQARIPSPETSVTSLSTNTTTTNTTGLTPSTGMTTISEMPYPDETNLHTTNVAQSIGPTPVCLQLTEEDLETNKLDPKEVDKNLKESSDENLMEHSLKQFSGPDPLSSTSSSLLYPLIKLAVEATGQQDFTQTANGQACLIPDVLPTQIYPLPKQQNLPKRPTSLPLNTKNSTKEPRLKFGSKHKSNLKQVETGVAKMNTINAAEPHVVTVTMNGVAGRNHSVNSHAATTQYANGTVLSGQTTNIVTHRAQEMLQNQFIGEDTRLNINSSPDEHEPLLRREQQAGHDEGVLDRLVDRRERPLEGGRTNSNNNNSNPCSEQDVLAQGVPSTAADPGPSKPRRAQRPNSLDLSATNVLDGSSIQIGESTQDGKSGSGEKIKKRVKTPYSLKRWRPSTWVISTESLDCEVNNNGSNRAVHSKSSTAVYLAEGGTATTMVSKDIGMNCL

[3] = biological target: T3, PKCζ(h) (Homo sapiens, UniProt Q05513)
T3 construct: purchased Eurofins (KinaseProfiler)
T3 sequence (Q05513 1-592): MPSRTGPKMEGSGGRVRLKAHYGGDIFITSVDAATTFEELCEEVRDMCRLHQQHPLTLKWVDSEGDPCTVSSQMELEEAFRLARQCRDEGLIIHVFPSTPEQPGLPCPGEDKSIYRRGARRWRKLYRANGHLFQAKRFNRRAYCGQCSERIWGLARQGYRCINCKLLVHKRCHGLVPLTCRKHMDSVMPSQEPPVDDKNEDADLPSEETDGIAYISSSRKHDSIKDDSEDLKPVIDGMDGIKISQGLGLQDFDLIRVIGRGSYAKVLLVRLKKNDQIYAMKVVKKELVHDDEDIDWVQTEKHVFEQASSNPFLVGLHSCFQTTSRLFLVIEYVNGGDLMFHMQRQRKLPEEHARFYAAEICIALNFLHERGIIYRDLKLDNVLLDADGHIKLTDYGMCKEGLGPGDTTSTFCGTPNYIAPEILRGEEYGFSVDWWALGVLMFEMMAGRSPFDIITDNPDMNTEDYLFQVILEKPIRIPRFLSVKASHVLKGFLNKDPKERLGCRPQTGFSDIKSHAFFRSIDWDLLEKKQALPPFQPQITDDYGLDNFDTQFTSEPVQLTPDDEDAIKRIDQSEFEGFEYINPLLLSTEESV

[4] = biological target: T4, DDR1(h) (Homo sapiens, UniProt Q08345)
T4 construct: purchased Eurofins (KinaseProfiler)
T4 sequence (Q08345 19-913): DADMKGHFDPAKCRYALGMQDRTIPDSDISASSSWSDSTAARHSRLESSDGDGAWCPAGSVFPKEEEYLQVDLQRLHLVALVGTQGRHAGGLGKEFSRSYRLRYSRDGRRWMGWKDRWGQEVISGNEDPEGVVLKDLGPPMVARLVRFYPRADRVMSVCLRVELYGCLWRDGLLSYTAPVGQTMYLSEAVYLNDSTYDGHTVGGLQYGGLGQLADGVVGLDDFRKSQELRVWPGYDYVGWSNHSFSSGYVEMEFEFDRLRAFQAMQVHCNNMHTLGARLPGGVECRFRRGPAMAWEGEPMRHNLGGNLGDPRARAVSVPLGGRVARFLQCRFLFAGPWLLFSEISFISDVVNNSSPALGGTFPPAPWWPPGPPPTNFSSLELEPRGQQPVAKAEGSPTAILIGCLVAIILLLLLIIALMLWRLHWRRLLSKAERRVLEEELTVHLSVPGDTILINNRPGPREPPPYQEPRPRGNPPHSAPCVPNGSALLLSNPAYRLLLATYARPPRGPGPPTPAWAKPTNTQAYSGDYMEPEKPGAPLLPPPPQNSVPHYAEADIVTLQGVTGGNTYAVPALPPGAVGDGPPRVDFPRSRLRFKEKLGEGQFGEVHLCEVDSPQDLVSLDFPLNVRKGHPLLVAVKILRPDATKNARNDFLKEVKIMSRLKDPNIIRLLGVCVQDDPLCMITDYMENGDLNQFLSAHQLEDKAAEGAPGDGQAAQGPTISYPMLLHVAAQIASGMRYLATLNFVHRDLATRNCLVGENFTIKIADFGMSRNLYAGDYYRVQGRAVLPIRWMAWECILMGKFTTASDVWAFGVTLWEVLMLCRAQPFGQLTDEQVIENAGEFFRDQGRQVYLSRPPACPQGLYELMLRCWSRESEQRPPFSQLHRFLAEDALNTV

[5] = biological target: T5, PDGFRβ(h) (Homo sapiens, UniProt P09619)
T5 construct: purchased Eurofins (KinaseProfiler)

[6] = biological target: T6, Ret(h) (Homo sapiens, UniProt P07949)
T6 construct: purchased Eurofins (KinaseProfiler)
T6 sequence (P07949 29-1114): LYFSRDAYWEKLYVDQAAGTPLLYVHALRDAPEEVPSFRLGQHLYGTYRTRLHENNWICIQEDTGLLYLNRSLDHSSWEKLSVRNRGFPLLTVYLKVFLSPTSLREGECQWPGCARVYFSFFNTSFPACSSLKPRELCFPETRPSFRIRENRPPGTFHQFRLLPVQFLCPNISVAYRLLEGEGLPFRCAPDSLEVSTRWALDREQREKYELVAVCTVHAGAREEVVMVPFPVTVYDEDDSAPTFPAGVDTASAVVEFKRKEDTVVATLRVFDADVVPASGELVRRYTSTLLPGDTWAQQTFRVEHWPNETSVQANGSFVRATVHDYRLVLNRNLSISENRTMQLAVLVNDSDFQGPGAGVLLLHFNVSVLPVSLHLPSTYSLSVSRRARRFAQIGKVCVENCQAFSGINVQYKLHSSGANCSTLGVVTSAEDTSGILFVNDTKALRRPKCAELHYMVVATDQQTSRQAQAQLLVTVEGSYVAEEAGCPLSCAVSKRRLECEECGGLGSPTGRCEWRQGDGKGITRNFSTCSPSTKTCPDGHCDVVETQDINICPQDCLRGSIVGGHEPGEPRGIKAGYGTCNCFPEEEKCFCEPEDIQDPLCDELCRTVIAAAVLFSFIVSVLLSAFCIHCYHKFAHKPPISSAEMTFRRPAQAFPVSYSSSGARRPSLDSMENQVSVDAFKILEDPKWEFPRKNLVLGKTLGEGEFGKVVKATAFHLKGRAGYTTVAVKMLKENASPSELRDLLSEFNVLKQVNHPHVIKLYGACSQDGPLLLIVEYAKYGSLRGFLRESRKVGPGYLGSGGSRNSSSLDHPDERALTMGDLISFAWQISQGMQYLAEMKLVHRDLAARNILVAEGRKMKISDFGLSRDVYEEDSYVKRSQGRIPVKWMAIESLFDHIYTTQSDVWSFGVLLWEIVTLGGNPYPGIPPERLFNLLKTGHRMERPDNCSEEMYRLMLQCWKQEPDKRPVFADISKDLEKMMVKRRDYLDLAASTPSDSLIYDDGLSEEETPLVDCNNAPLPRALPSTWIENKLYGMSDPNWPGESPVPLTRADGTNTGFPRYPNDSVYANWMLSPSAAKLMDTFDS

[7] = biological target: T7, Cdc7/cyclinB1(h) (Homo sapiens, UniProt O00311)
T7 construct: purchased Eurofins (KinaseProfiler)
T7 sequence (O00311 whole entry): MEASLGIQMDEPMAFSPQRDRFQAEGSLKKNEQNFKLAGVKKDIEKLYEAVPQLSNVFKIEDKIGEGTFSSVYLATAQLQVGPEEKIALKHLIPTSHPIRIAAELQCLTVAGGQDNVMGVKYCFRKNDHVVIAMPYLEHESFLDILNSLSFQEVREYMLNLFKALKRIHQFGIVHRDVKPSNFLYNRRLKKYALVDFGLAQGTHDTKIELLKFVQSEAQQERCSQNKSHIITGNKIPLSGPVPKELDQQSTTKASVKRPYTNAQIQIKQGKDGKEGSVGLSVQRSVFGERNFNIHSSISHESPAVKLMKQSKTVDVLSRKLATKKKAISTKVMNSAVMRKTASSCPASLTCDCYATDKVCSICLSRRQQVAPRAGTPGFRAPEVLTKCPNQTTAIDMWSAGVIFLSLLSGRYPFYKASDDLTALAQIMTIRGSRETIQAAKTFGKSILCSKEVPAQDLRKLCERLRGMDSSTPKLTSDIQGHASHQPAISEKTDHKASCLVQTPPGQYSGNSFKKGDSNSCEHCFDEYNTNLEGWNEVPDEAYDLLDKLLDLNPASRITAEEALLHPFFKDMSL

[8] = biological target: T8, Rsk1(h) (Homo sapiens, UniProt Q15418)
T8 construct: purchased Eurofins (KinaseProfiler)
T8 sequence (Q15418 whole entry): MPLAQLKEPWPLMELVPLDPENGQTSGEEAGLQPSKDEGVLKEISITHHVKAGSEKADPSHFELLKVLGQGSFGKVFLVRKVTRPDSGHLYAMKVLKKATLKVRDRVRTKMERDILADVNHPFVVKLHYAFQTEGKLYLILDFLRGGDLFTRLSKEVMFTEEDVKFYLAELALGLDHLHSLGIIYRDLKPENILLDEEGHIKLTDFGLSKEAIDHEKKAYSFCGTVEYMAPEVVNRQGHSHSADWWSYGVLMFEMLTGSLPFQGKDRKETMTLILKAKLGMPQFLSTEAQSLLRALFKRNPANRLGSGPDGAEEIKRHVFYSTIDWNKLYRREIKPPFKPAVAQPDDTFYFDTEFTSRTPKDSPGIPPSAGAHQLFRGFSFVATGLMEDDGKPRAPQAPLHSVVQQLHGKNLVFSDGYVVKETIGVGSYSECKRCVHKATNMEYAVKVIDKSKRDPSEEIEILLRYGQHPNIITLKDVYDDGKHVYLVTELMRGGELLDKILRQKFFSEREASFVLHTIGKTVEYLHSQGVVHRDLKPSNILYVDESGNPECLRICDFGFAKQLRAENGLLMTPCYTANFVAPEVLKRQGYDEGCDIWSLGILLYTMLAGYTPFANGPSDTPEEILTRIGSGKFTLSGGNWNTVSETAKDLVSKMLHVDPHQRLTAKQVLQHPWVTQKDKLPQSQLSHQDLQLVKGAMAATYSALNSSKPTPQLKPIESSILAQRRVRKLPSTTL

[9] = biological target: T9, TSSK3(h) (Homo sapiens, UniProt Q96PN8)
T9 construct: purchased Eurofins (KinaseProfiler)
T9 sequence (Q96PN8 1-268): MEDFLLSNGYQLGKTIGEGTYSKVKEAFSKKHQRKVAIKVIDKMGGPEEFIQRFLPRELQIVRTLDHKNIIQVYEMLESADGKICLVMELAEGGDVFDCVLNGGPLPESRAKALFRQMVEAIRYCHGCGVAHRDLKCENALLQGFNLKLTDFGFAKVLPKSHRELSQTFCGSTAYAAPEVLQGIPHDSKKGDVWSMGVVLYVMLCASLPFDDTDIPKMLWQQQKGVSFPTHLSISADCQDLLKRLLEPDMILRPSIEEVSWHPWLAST

[10] = biological target: T10, Met(D1246N)(h) (Homo sapiens, UniProt P08581, D1228N)
T10 construct: purchased Eurofins (KinaseProfiler)
T10 sequence (P08581 956-1390 D1228N limits assumed): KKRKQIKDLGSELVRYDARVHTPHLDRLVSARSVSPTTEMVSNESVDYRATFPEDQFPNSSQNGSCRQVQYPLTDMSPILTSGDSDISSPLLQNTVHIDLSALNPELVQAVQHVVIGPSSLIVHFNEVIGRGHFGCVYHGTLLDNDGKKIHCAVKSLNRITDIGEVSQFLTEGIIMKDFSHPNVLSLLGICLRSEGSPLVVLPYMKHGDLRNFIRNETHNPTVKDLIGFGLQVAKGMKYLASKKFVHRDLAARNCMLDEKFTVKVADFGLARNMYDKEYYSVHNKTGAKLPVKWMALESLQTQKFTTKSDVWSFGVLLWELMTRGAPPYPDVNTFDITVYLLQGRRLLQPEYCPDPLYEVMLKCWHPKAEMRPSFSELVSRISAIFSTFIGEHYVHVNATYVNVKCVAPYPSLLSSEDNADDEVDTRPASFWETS

For `COc1cc(OC)c(Cl)c(-c2ccc3c(NC(=O)c4ccc(N5CCNC(C)(C)C5)cc4)n[nH]c3n2)c1Cl` [3D185], the inhibition at 0.01 µM ([1]; 10 nM) was 5%, the inhibition at 0.1 µM ([1]; 100 nM) was 4% and the inhibition at 1 µM ([1]; 1000 nM) was -1%. The inhibition at 0.01 µM ([2]; 10 nM) was 5%, the inhibition at 0.1 µM ([2]; 100 nM) was -2% and the inhibition at 1 µM ([2]; 1000 nM) was 4%. For the same compound, the inhibition at 0.01 µM ([3]; 10 nM) was -11%, the inhibition at 0.1 µM ([3]; 100 nM) was 7% and the inhibition at 1 µM ([3]; 1000 nM) was -22%. For the same compound, the inhibition at 0.01 µM ([4]; 10 nM) was 6%, the inhibition at 0.1 µM ([4]; 100 nM) was 27% and the inhibition at 1 µM ([4]; 1000 nM) was 64%. The inhibition at 0.01 µM ([5]; 10 nM) was 1%, the inhibition at 0.1 µM ([5]; 100 nM) was -1% and the inhibition at 1 µM ([5]; 1000 nM) was 17%. It also gave an inhibition at 0.01 µM ([6]; 10 nM) of 8%, an inhibition at 0.1 µM ([6]; 100 nM) of 27% and an inhibition at 1 µM ([6]; 1000 nM) of 80%. It also gave an inhibition at 0.01 µM ([7]; 10 nM) of 5%, an inhibition at 0.1 µM ([7]; 100 nM) of -5% and an inhibition at 1 µM ([7]; 1000 nM) of 8%. For the same compound, the inhibition at 0.01 µM ([8]; 10 nM) was -1%, the inhibition at 0.1 µM ([8]; 100 nM) was -4% and the inhibition at 1 µM ([8]; 1000 nM) was 24%. The inhibition at 0.01 µM ([9]; 10 nM) was 14%, the inhibition at 0.1 µM ([9]; 100 nM) was 5% and the inhibition at 1 µM ([9]; 1000 nM) was 5%. The inhibition at 0.01 µM ([10]; 10 nM) was -18%, the inhibition at 0.1 µM ([10]; 100 nM) was -11% and the inhibition at 1 µM ([10]; 1000 nM) was 3%.
